From publication PMC9481151, “Discovery of new symmetrical and asymmetrical nitrile-containing 1,4-dihydropyridine derivatives as dual kinases and P-glycoprotein inhibitors: synthesis, in vitro assays, and in silico studies” (Journal of Enzyme Inhibition and Medicinal Chemistry, 2022)

Experiments:
MOLT-4 = test: NCI single dose (10 µM) SRB screen; assay type: cell-based, human; conditions: leukaemia, 48 h
RPMI-8226 = test: NCI single dose (10 µM) SRB screen; assay type: cell-based, human; conditions: leukaemia, 48 h
SR = test: NCI single dose (10 µM) SRB screen; assay type: cell-based, human; conditions: leukaemia, 48 h
A549/ATCC = test: NCI single dose (10 µM) SRB screen; assay type: cell-based, human; conditions: non-small cell lung cancer, 48 h
HOP-62 = test: NCI single dose (10 µM) SRB screen; assay type: cell-based, human; conditions: non-small cell lung cancer, 48 h
HOP-92 = test: NCI single dose (10 µM) SRB screen; assay type: cell-based, human; conditions: non-small cell lung cancer, 48 h
NCI-H226 = test: NCI single dose (10 µM) SRB screen; assay type: cell-based, human; conditions: non-small cell lung cancer, 48 h
NCI-H23 = test: NCI single dose (10 µM) SRB screen; assay type: cell-based, human; conditions: non-small cell lung cancer, 48 h
NCI-H322M = test: NCI single dose (10 µM) SRB screen; assay type: cell-based; conditions: non-small cell lung cancer, 48 h
NCI-H522 = test: NCI single dose (10 µM) SRB screen; assay type: cell-based, human; conditions: non-small cell lung cancer, 48 h
COLO 205 = test: NCI single dose (10 µM) SRB screen; assay type: cell-based, human; conditions: colon cancer, 48 h
HCC-2998 = test: NCI single dose (10 µM) SRB screen; assay type: cell-based, human; conditions: colon cancer, 48 h
HCT-15 = test: NCI single dose (10 µM) SRB screen; assay type: cell-based, human; conditions: colon cancer, 48 h
SW-620 = test: NCI single dose (10 µM) SRB screen; assay type: cell-based, human; conditions: colon cancer, 48 h
SF-268 = test: NCI single dose (10 µM) SRB screen; assay type: cell-based, human; conditions: CNS cancer, 48 h
SF-295 = test: NCI single dose (10 µM) SRB screen; assay type: cell-based, human; conditions: CNS cancer, 48 h
SF-539 = test: NCI single dose (10 µM) SRB screen; assay type: cell-based, human; conditions: CNS cancer, 48 h
SNB-19 = test: NCI single dose (10 µM) SRB screen; assay type: cell-based, human; conditions: CNS cancer, 48 h
SNB-75 = test: NCI single dose (10 µM) SRB screen; assay type: cell-based, human; conditions: CNS cancer, 48 h
U251 = test: NCI single dose (10 µM) SRB screen; assay type: cell-based, human; conditions: CNS cancer, 48 h
LOX IMVI = test: NCI single dose (10 µM) SRB screen; assay type: cell-based, human; conditions: melanoma, 48 h
MALME-3M = test: NCI single dose (10 µM) SRB screen; assay type: cell-based, human; conditions: melanoma, 48 h
M14 = test: NCI single dose (10 µM) SRB screen; assay type: cell-based, human; conditions: melanoma, 48 h
MDA-MB-435 = test: NCI single dose (10 µM) SRB screen; assay type: cell-based, human; conditions: melanoma, 48 h
SK-MEL-28 = test: NCI single dose (10 µM) SRB screen; assay type: cell-based, human; conditions: melanoma, 48 h
UACC-257 = test: NCI single dose (10 µM) SRB screen; assay type: cell-based, human; conditions: melanoma, 48 h
UACC-62 = test: NCI single dose (10 µM) SRB screen; assay type: cell-based, human; conditions: melanoma, 48 h
IGROV1 = test: NCI single dose (10 µM) SRB screen; assay type: cell-based, human; conditions: ovarian cancer, 48 h
OVCAR-3 = test: NCI single dose (10 µM) SRB screen; assay type: cell-based, human; conditions: ovarian cancer, 48 h
OVCAR-4 = test: NCI single dose (10 µM) SRB screen; assay type: cell-based, human; conditions: ovarian cancer, 48 h
OVCAR-8 = test: NCI single dose (10 µM) SRB screen; assay type: cell-based, human; conditions: ovarian cancer, 48 h
NCI/ADR-RES = test: NCI single dose (10 µM) SRB screen; assay type: cell-based, human; conditions: ovarian cancer, 48 h
786-0 = test: NCI single dose (10 µM) SRB screen; assay type: cell-based, human; conditions: renal cancer, 48 h
CAKI-1 = test: NCI single dose (10 µM) SRB screen; assay type: cell-based, human; conditions: renal cancer, 48 h
RXF 393 = test: NCI single dose (10 µM) SRB screen; assay type: cell-based, human; conditions: renal cancer, 48 h
SN12C = test: NCI single dose (10 µM) SRB screen; assay type: cell-based, human; conditions: renal cancer, 48 h
TK-10 = test: NCI single dose (10 µM) SRB screen; assay type: cell-based, human; conditions: renal cancer, 48 h
UO-31 = test: NCI single dose (10 µM) SRB screen; assay type: cell-based, human; conditions: renal cancer, 48 h
PC-3 = test: NCI single dose (10 µM) SRB screen; assay type: cell-based, human; conditions: prostate cancer, 48 h
DU-145 = test: NCI single dose (10 µM) SRB screen; assay type: cell-based, human; conditions: prostate cancer, 48 h
MDA-MB-231 = test: NCI single dose (10 µM) SRB screen; assay type: cell-based, human; conditions: breast cancer, 48 h
HS578T = test: NCI single dose (10 µM) SRB screen; assay type: cell-based, human; conditions: breast cancer, 48 h
BT-549 = test: NCI single dose (10 µM) SRB screen; assay type: cell-based, human; conditions: breast cancer, 48 h
T-47D = test: NCI single dose (10 µM) SRB screen; assay type: cell-based, human; conditions: breast cancer, 48 h
MDA-MB-468 = test: NCI single dose (10 µM) SRB screen; assay type: cell-based, human; conditions: breast cancer, 48 h
NCI 60 cancer cell lines = test: NCI single dose (10 µM) SRB screen, mean over panel; assay type: cell-based, human; conditions: mean over 60 cell lines, 48 h
Staphylococcus aureus = test: Agar well diffusion method
Bacillus subtilis = test: Agar well diffusion method
Escherichia coli = test: Agar well diffusion method
Candida albicans = test: Agar well diffusion method
Aspergillus flavus = test: Agar well diffusion method

COC(=O)C1=C(C)NC(C)=C(C(=O)OC)C1c1cccc(C#N)c1 [Compound 1a, Dimethyl 4-(3-cyanophenyl)-2,6-dimethyl-1,4-dihydropyridine-3,5-dicarboxylate]
GI% MOLT-4 (MOLT-4): – (Only GI% ≥ 10 are shown)
GI% RPMI-8226 (RPMI-8226): – (Only GI% ≥ 10 are shown)
GI% SR (SR): – (Only GI% ≥ 10 are shown)
GI% A549/ATCC (A549/ATCC): – (Only GI% ≥ 10 are shown)
GI% HOP-62 (HOP-62): – (Only GI% ≥ 10 are shown)
GI% HOP-92 (HOP-92): – (Only GI% ≥ 10 are shown)
GI% NCI-H226 (NCI-H226): – (Only GI% ≥ 10 are shown)
GI% NCI-H23 (NCI-H23): – (Only GI% ≥ 10 are shown)
GI% NCI-H322M (NCI-H322M): – (Only GI% ≥ 10 are shown)
GI% NCI-H522 (NCI-H522): – (Only GI% ≥ 10 are shown)
GI% COLO 205 (COLO 205): – (Only GI% ≥ 10 are shown)
GI% HCC-2998 (HCC-2998): – (Only GI% ≥ 10 are shown)
GI% HCT-15 (HCT-15): – (Only GI% ≥ 10 are shown)
GI% SW-620 (SW-620): – (Only GI% ≥ 10 are shown)
GI% SF-268 (SF-268): – (Only GI% ≥ 10 are shown)
GI% SF-295 (SF-295): – (Only GI% ≥ 10 are shown)
GI% SF-539 (SF-539): – (Only GI% ≥ 10 are shown)
GI% SNB-19 (SNB-19): – (Only GI% ≥ 10 are shown)
GI% SNB-75 (SNB-75): 24%
GI% U251 (U251): – (Only GI% ≥ 10 are shown)
GI% LOX IMVI (LOX IMVI): – (Only GI% ≥ 10 are shown)
GI% MALME-3M (MALME-3M): – (Only GI% ≥ 10 are shown)
GI% M14 (M14): – (Only GI% ≥ 10 are shown)
GI% MDA-MB-435 (MDA-MB-435): – (Only GI% ≥ 10 are shown)
GI% SK-MEL-28 (SK-MEL-28): – (Only GI% ≥ 10 are shown)
GI% UACC-257 (UACC-257): – (Only GI% ≥ 10 are shown)
GI% UACC-62 (UACC-62): – (Only GI% ≥ 10 are shown)
GI% IGROV1 (IGROV1): – (Only GI% ≥ 10 are shown)
GI% OVCAR-3 (OVCAR-3): – (Only GI% ≥ 10 are shown)
GI% OVCAR-4 (OVCAR-4): – (Only GI% ≥ 10 are shown)
GI% OVCAR-8 (OVCAR-8): – (Only GI% ≥ 10 are shown)
GI% NCI/ADR-RES (NCI/ADR-RES): – (Only GI% ≥ 10 are shown)
GI% 786-0 (786-0): – (Only GI% ≥ 10 are shown)
GI% CAKI-1 (CAKI-1): – (Only GI% ≥ 10 are shown)
GI% RXF 393 (RXF 393): – (Only GI% ≥ 10 are shown)
GI% SN12C (SN12C): – (Only GI% ≥ 10 are shown)
GI% TK-10 (TK-10): – (Only GI% ≥ 10 are shown)
GI% UO-31 (UO-31): – (Only GI% ≥ 10 are shown)
GI% PC-3 (PC-3): – (Only GI% ≥ 10 are shown)
GI% DU-145 (DU-145): – (Only GI% ≥ 10 are shown)
GI% MDA-MB-231 (MDA-MB-231): – (Only GI% ≥ 10 are shown)
GI% HS578T (HS578T): – (Only GI% ≥ 10 are shown)
GI% BT-549 (BT-549): – (Only GI% ≥ 10 are shown)
GI% T-47D (T-47D): – (Only GI% ≥ 10 are shown)
GI% MDA-MB-468 (MDA-MB-468): – (Only GI% ≥ 10 are shown)
Mean GI% (NCI 60 cancer cell lines): −4%
zone of inhibition at 1000 µg/mL (Staphylococcus aureus; Staphylococcus aureus, 24 h, read-out: Diameter of inhibition zone, S. aureus): 13 mm
% activity index, S. aureus (Staphylococcus aureus; relative to ciprofloxacin): 54.2%
zone of inhibition at 1000 µg/mL (Bacillus subtilis; Bacillus subtilis, 24 h, read-out: Diameter of inhibition zone, B. subtilis): 9 mm
% activity index, B. subtilis (Bacillus subtilis; relative to ciprofloxacin): 39.1%
zone of inhibition at 1000 µg/mL (Escherichia coli; Escherichia coli, 24 h, read-out: Diameter of inhibition zone, E. coli): 8 mm
% activity index, E. coli (Escherichia coli; relative to ciprofloxacin): 30.8%
zone of inhibition at 1000 µg/mL (Candida albicans; Candida albicans, 24 h, read-out: Diameter of inhibition zone, C. albicans): 13 mm
% activity index, C. albicans (Candida albicans; relative to clotrimazole): 48.1%
zone of inhibition at 1000 µg/mL (Aspergillus flavus; Aspergillus flavus, 24 h, read-out: Diameter of inhibition zone, A. flavus): 15 mm
% activity index, A. flavus (Aspergillus flavus; relative to clotrimazole): 60%
